Patent publication US9856732B2, “Tracers” (RESTRACK AS, priority 2012, dated 2018)

test system: not listed separately; test: Oil/water partition coefficient from flooding experiment on silica-packed column at residual oil saturation; format: physicochemical; settings: 80° C., oil 2 and water 2
Protocol: Structural formulas of examples of compounds from four groups of fluorinated benzyl alcohols tested are shown herein, including in FIG. 1. The compounds could be analyzed using gas chromatography with mass spectrometric detection (GC-MS) in produced water after clean-up and pre-concentration of the water samples. Detection limits of 50 ng/l (ppt) could be obtained depending on the level of interferences from the sample matrix. Several compounds from the four groups were selected and tested for thermal stability, flooding properties, and adsorption to rock materials. In addition, two pilot field tests were initiated. Some results from the laboratory tests are shown in Table 1 and in FIG. 2 to FIG. 10. Partition coefficients were measured at 80° C., oil 2 and water 2.
A still further feature of the benzyl alcohol compounds used in the various aspects of the present invention is their highly suitable partition coefficients. For example, compounds of formula i) or preferred compounds as described herein may have partition coefficients between 1.0 and 8.0. The partition coefficients should not be too high because the partitioning tracers then will be retained too much compared to the passive water tracer. Preferable values for the partition coefficients will be between 1.2 and 7, preferably between 1.3 and 5. In all cases referred to herein partition coefficients are measured at 80° C., oil 2 and water 2, unless otherwise stated.
To test the dynamic properties of the tracer candidate an experimental setup containing a residual oil saturated column was used. […] The column was packed with 70 μm silica beads. Dead crude oil was pumped through the column after which artificial formation water was pumped through the system until residual oil saturation was reached. The tracer candidate was then co-injected with tritiated water (HTO) as a pulse into the water flow. The experiments were conducted with different oil types, different water compositions and at several temperatures.

Compared with OCc1c(F)ccc(F)c1F [2,3,6-TFBOH, 2,3,6-trifluorobenzyl alcohol], OCc1c(F)cccc1F [2,6-DFBOH, 2,6-difluorobenzyl alcohol] is lower in “partition coefficient K” value: 1.9 for the first, 1.5 for the second.

Going from OCc1c(F)cc(F)cc1F [2,4,6-TFBOH, 2,4,6-trifluorobenzyl alcohol] to OCc1cc(F)cc(F)c1 [3,5-DFBOH, 3,5-difluorobenzyl alcohol], the “partition coefficient K” value rises from 2.4 to 2.9.

Compared with OCc1ccccc1F [2-FBOH, 2-fluorobenzyl alcohol], OCc1ccc(F)c(F)c1 [3,4-DFBOH, 3,4-difluorobenzyl alcohol] is higher in “partition coefficient K” value: 1.5 for the first, 2.1 for the second.

test system: not listed separately; test: Biodegradability in seawater (OECD 306); settings: not given
Protocol: Tracers must be stable in the harsh reservoir environment, thus their results in the seawater biodegradation component of the HOCNF scheme “OECD (306 1999) guideline for testing chemicals, biodegradation in seawater” often show less than 20% biodegradation ensuring that they automatically are placed in the red category.
(§1) The most important environmental properties were tested on several example compounds. These are biodegradability in seawater and toxicity screening for Skeletonema Costatum. The latter gives a good general indication of the total toxicity of a chemical and in combination with the biodegradability gives a strong indication of the total impact of the environment.

Compared with OCc1c(F)ccc(F)c1F [2,3,6-TFBOH, 2,3,6-trifluorobenzyl alcohol], OCc1c(F)cccc1F [2,6-DFBOH, 2,6-difluorobenzyl alcohol] is lower in “Biodegradability BOD28” value: 2% for the first, 0% for the second.

Going from OCc1cc(F)cc(F)c1 [3,5-DFBOH, 3,5-difluorobenzyl alcohol] to OCc1ccc(F)cc1 [4-FBOH], the “Biodegradability BOD28” value rises from 2% to 3%.

In the case of OCc1c(F)cc(F)cc1F [2,4,6-TFBOH, 2,4,6-trifluorobenzyl alcohol], the “Biodegradability BOD28” value was 0-3%.

test system: Skeletonema Costatum; test: Toxicity screening for Skeletonema Costatum (ISO 10253; 2006); format: cell-based; settings: exposure of 72 hr
From the text: In addition to biodegradation in seawater other tests to be conducted are the toxicity test with Acardia Tonsa (ISO14669; 1999), providing a median lethal concentration (LC50) after an exposure of 48 hr, toxicity test with Skeletonema Costatum (ISO 10253; 2006), providing a median effect concentration (EC50/EL50) after an exposure of 72 hr, toxicity test with Scophthalmus Maximus (PARCOM 2006), providing the mortality of fish after 96 hr at EC50 value and bioaccumulation potential (OECD Guidelines for Testing of Chemicals, 117), providing the logarithm of n-octanol/water partition coefficient.
as §1

For OCc1ccc(F)cc1 [4-FBOH], the “Toxicity EL50” value was “Ca 10 mg/L”.
